From patent publication US12252493B2, “Imidazo[1,2-c]pyrimidine derivatives as PRC2 inhibitors for treating cancer” (Mirati Therapeutics, Inc., priority 2019, dated 2025)

What was measured:
[1] = tested on: PRC2-mediated histone H3 methylation (H3 Lys27 trimethylation) in Pfeiffer cells expressing mutant EZH2 (A677G); assay: Tri-Methyl Histone H3 (Lys 27) sandwich ELISA in Pfeiffer cells; type: cell-based, human; conditions: Homo sapiens; Pfeiffer cells, 96 hours incubation, ELISA; read-out: IC50, Inhibition of EZH2-mediated Histone H3 Trimethylation
Text: The Pfeiffer cell line was established from a […] from a patient having metastatic diffuse large B-cell lymphoma (DLBCL). This cell line expresses a mutant form of the EZH2 enzyme (A677G) that results in enhanced EZH2 activity leading to increased methylation of histone H3 Lys27. Increased trimethylation of histone H3 Lys27 is believed to be implicated in tumorgenesis and poor clinical prognosis in lymphomas (McCabe et al., (2012) Nature 492:108-112).
Inhibition of PRC2-mediated histone H3 methylation by compounds of Formula (I) was measured by ELISA using a Tri-Methyl Histone H3 (Lys 27) Sandwich ELISA Kit (Cell Signaling Tech #7866C) in accordance with the manufacturer's instructions. Briefly, Pfeiffer cells were cultured in RPMI medium supplemented with 10% fetal bovine serum and 1% penicillin and 1% streptomycin in 96 well culture plates at 37° C. to a density of 8000 cells/90 μl/well and the cells were harvested. A series of 3-fold serial dilutions of each test compound of Formula (I) were prepared in RPMI medium and added to the cells at final concentrations ranging from 1 μM to 0.15 nM. The plates were incubated at 37° C. for 96 hours.
After incubation, the cells were pelleted by centrifugation in a pre-cooled 4° C. rotor at 1,100 rpm for 10 min and the supernatant was removed by aspiration. The cell pellet was resuspended in 55 μl of Lysis Buffer (0.4M HCl) and incubated on ice with periodic shaking for 30 minutes. The lysed cells were subjected to centrifugation at 4,200 rpm for 10 min at 4° C. and the supernatant containing acid-soluble proteins was collected and the remainder discarded. The acid-soluble proteins were brought to a neutral pH by the addition of 20 μl of Neutralization Buffer (1 M Sodium phosphate, dibasic (pH 12.5), 2.5 mM DTT and 1 mM PMSF) and the neutralized lysates were analyzed by ELISA.
A 65 μl aliquot of each cell lysate was added to a well of a microwell strip, the microwells were sealed using tape and incubated either at 37° C. for two hours or at 4° C. overnight. After incubation, the tape was removed at the microwells were washed four times using 200 μl of 1× Wash Buffer. To each washed microwell, a 100 μl aliquot of an anti-trimethyl histone H3 Lys27 Detection Antibody solution was added and the microwells were incubated at 37° C. for one hour. The Detection Antibody solution was removed by aspiration and the wells were washed four times each using 200 μl of 1× Wash Buffer.
A 100 μl aliquot of an HRP-linked secondary antibody was added to each well, the wells were sealed with tape and incubated at 37° C. for 30 min. The HRP-linked secondary antibody solution was removed by aspiration and the wells were washed four times using 200 μl of 1× Wash Buffer. A 100 μl aliquot of a TMB substrate was added to each well, the wells were sealed with tape and incubated at 37° C. for 10 min or 25° C. for 30 min. The reaction was stopped by the addition of 100 μl aliquot of a STOP solution and the plate was shaken briefly. The degree of histone H3 trimethylation was determined using a spectrophotometric readout by measuring the absorbance at 450 nm and then calculating the amount of trimethylated histone H3. Key: A=≤250 nM; B=>250 nM-≤500 nM; and C=>500 nM-≤5 μM.

[2] = tested on: Karpas 422 cells expressing mutant EZH2 (Y641N); assay: Karpas 422 cell viability (Cell Titre Glo) assay; type: cell-based, human; conditions: Homo sapiens, CTG viability, time point (Day 4, Day 7 or Day 11) not given, read-out: IC50, Inhibiting Proliferation of Cells Expressing an Activating Mutant Form of EZH2
Method: Karpas 422 cell line is a human B cell non-Hodgkin's lymphoma cell line established from a patient having DLBCL. This EZH2 heterozygotic cell line expresses a mutant form of EZH2 enzyme (Y641N) that increases histone H3 methylation and this mutation has been implicated in the tumorgenesis of lymphomas, such as DLBCL.
Karpas 422 cells (PHE cat no., 06101702) were cultured in RPMI medium supplemented with 20% fetal bovine serum and 1% penicillin/1% streptomycin and plated at a density of 1000 cells/90 μl/well in 96 well white assay plates. A dose response curve for compounds of the present invention was determined by adding a 10 μl aliquot of stock solutions of varying concentrations of compounds to the same medium in each well, over a concentration range of 10 μM using 3-fold dilutions to a final concentration of 1.5 nM. The plates were incubated at 37° C. for predetermined time periods, Day 4, Day 7, or Day 11, and the viability of the cells was measured using a CTG assay kit (Cell Titre Glo; Promega cat. no G7573) on Day 4 and Day 7 in accordance with the manufacturer's instructions.
For the viability assay for the Day 11 plates, the plates were subjected to centrifugation at 1100 rpm for five minutes on Day 7 and the supernatant was removed by aspiration. The cells were resuspended in 90 μl aliquot of the appropriate growth medium lacking the compound followed by addition of 10 μl of a 10× stock of the same compound at the same concentration. The viability of the Day 11 cells was measured using the CTG assay kit described above in accordance with the manufacturer's instructions. The IC50 values for each compound at each predetermined time point were calculated using Graph pad PRISM software and the results are shown in Table 7. Key: A=≤250 nM; B=>250 nM-≤500 nM; C=>500 nM-≤5 μM and N.D.=not determined.

[3] = target: purified human, His-tagged PRC2 complex (Homo sapiens (Human), UniProt O75530); assay: Hot Spot HMT assay of PRC2 enzymatic activity (tritiated methyl transfer from SAM to core histone); type: biochemical; conditions: 10 nM purified PRC2 complex, 0.05 mg/ml core histone H3, 1 uM 3H-SAM, 1 hr at 30° C.; read-out: IC50, Inhibition of PRC2-mediated Enzymatic Activity
purified human, His-tagged PRC2 complex, sequence (Q15910 whole entry): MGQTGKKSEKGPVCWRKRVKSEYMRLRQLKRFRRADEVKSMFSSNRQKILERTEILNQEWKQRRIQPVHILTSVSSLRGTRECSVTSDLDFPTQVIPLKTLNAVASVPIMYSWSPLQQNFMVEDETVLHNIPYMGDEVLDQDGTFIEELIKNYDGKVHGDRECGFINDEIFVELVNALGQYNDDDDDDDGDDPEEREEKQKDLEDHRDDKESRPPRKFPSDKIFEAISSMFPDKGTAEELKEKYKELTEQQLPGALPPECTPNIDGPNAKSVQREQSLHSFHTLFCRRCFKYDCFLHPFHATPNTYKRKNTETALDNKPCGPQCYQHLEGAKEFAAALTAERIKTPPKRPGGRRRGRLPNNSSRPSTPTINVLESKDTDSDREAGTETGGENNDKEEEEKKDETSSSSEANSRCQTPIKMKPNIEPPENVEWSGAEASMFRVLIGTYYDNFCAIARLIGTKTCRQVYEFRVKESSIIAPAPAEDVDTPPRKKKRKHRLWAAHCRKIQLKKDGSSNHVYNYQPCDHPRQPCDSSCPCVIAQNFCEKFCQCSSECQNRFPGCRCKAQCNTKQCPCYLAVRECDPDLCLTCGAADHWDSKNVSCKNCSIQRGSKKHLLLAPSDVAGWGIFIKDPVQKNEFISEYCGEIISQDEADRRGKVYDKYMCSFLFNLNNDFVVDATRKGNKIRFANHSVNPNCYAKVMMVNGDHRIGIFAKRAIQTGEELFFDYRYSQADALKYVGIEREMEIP
purified human, His-tagged PRC2 complex, sequence (O75530 whole entry): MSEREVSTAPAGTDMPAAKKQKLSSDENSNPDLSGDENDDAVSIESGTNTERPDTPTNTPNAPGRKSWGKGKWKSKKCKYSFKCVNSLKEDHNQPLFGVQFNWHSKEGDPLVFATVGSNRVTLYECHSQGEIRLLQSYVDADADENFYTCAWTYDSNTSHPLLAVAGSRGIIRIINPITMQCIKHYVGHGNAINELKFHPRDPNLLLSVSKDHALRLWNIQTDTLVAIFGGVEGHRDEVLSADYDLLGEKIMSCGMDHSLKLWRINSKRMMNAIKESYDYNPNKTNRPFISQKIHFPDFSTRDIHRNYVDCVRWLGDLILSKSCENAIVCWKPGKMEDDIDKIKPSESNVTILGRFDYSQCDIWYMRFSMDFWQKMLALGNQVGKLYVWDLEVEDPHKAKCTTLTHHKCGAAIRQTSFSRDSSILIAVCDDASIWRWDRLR
purified human, His-tagged PRC2 complex, sequence (Q15022 whole entry partner): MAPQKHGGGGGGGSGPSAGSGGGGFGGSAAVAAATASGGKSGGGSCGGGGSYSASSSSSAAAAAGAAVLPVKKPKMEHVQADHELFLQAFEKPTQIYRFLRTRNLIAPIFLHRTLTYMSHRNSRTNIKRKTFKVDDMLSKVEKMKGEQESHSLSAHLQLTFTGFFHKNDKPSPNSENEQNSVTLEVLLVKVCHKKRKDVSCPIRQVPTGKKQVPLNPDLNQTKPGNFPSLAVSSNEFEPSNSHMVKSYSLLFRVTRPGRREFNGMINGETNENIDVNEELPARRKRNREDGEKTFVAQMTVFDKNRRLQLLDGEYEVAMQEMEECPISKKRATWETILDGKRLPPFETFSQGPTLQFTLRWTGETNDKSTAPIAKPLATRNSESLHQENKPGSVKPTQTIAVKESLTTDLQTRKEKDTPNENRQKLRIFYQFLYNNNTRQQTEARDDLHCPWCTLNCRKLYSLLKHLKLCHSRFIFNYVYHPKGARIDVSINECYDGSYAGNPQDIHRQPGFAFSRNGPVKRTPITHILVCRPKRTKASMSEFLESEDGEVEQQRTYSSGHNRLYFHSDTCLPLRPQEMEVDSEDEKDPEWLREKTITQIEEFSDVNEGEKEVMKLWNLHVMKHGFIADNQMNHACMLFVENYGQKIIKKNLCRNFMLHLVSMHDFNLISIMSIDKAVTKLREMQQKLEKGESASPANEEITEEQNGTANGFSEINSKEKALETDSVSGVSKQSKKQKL
purified human, His-tagged PRC2 complex, sequence (Q6ZN18 whole entry partner): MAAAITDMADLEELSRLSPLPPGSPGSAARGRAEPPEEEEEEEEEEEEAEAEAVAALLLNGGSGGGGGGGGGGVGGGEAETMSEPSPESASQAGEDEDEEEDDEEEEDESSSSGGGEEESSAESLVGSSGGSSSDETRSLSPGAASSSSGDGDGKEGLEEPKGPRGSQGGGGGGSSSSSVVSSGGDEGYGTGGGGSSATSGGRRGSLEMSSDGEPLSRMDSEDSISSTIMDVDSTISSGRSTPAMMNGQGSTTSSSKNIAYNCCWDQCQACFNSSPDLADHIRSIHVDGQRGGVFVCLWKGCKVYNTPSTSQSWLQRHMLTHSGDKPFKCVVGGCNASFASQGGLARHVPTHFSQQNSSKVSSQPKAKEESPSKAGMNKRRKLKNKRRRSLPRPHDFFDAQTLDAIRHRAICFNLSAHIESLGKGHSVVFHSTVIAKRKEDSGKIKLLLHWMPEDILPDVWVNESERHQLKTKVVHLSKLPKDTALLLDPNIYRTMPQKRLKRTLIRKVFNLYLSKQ
purified human, His-tagged PRC2 complex, sequence (Q09028 whole entry partner): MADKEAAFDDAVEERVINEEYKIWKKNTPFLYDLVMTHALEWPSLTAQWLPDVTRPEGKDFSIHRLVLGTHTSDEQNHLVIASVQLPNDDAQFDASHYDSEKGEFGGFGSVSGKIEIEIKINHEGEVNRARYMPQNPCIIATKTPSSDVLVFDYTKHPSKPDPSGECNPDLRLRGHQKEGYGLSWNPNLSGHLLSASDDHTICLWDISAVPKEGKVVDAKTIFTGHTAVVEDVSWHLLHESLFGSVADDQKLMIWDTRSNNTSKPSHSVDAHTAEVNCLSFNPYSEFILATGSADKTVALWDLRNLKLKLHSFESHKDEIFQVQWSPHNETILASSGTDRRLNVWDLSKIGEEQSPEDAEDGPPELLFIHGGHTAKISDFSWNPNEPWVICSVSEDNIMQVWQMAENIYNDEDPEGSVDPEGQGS
Method: Ten-point dose-response curves for compounds of the present invention were determined using a Hot Spot HMT assay (Reaction Biology Corp; see Horiuchi et al., Assay Drug Dev Technol. (2013) 4: 227-236 doi: 10.1089/adt.2012.480). The assay uses purified human, His-tagged PRC2 complex, including N-terminal His-tagged EZH2 enzyme, N-terminal Flag-tagged embryonic ectoderm development protein (EED), N-terminal His-tagged suppressor of zeste 12 (SUZ12), N-terminal His-tagged AEBP2, and N-terminal His-tagged RbAp48. In this assay, the transfer of the tritiated methyl group from radiolabeled S-adenosyl methionine (SAM) to purified core histone protein by EZH2 is quantitated after filtration to determine the activity of the core PRC2 complex in the presence and absence of compound.
Briefly, compounds of the present invention were solubilized in DMSO and a series of 10, three-fold serial dilutions were made for each compound in 15% DMSO. The initial starting concentration for the serial dilutions of each compound was 1.0 μM. Control samples lacking compound, EZH2 enzyme or various reaction components also were prepared and processed in parallel with compound test samples. SAH (S-(5-adenosyl)-L-homocysteine) was used as a positive control for assay validation.
An aliquot of each serial dilution of test compound was added to deep 384 well plate using Acoustic Technology instrument (Echo 550, LabCyte) containing reaction buffer (50 mM Tris-HCl (pH 8.)), 0.01% Brij35, 1 mM EDTA, 1 mM DTT, 1 mM PMSF and 1% DMSO), 10 nM purified PRC2 complex and 0.05 mg/ml core histone H3 in a 5 μl volume. The reaction was mixed gently and then pre-incubated for 20 min at 30° C. The enzymatic reaction was initiated by adding 1 uM S-Adenosyl-L-[methyl ^3H]methionine and incubated for 1 hr at 30° C. After 1 hr, the reaction product was detected using a filter binding method and the amount of tritiated H3 core histone was quantitated using a scintillation counter. The IC50 value for each compound was determined from each 10-point dose-response curve using GraphPad Prism software and the results for exemplary compounds of Formula (I) are shown in Table 5. Key: A=≤250 nM; B=>250 nM—≤500 nM; and C=>500 nM—≤2 μM.

| IC50 [1] | IC50 [2] | IC50 [3] | Compound |
| --- | --- | --- | --- |
| 250 to 500 nM | 250 to 500 nM | 500 to 2000 nM | Cc1cc(-c2cnc(NCc3c(F)ccc4occc34)n3cc(CN)nc23)n(C)n1 [Example 24] |
| < 250 nM | < 250 nM | < 250 nM | Cc1cc(CN(C)C)ccc1-c1cnc(NCc2c(F)ccc3c2CCO3)n2cc(C(C)N)nc12 (stereo not drawn) [Example 37, 2-(1-aminoethyl)-8-(4-((dimethylamino)methyl)-2-methylphenyl)-N-((5-fluoro-2,3-dihydrobenzofuran-4-yl)methyl)imidazo[1,2-c]pyrimidin-5-amine] |
| 250 to 500 nM | < 250 nM | < 250 nM | Cc1ncccc1-c1cnc(NCc2c(F)ccc3c2CCO3)n2cc(CN)nc12 [Example 19, 2-(aminomethyl)-N-((5-fluoro-2,3-dihydrobenzofuran-4-yl)methyl)-8-(2-methylpyridin-3-yl)imidazo[1,2-c]pyrimidin-5-amine] |
| < 250 nM | < 250 nM | < 250 nM | Cc1cc(-c2cnc(NCc3c(F)ccc4c3CCO4)n3cc(CN)nc23)n(C)n1 [Example 10, 2-(aminomethyl)-8-(1,3-dimethyl-1H-pyrazol-5-yl)-N-((5-fluoro-2,3-dihydrobenzofuran-4-yl)methyl)imidazol[1,2-c]pyramidin-5-amine] |
| 500 to 5000 nM | 500 to 5000 nM | 500 to 2000 nM | Cc1cc(-c2cnc(NCc3cccc4c3CCO4)n3cc(CN)nc23)n(C)n1 [Example 23, 2-(aminomethyl)-N-((2,3-dihydrobenzofuran-4-yl)methyl)-8-(1,3-dimethyl-1H-pyrazol-5-yl)imidazo[1,2-c]pyrimidin-5-amine] |
| 500 to 5000 nM | 500 to 5000 nM | 500 to 2000 nM | NCc1cn2c(NCc3c(F)ccc4c3CCO4)ncc(-c3cc(F)cc(F)c3)c2n1 [Example 16, 2-(aminomethyl)-8-(3,5-difluorophenyl)-N-((5-fluoro-2,3-dihydrobenzofuran-4-yl)methyl)imidazo[1,2-c]pyrimidin-5-amine] |
| 250 to 500 nM | < 250 nM | < 250 nM | Cc1cc(-c2cnc(NCc3c(F)ccc4c3CCO4)n3cc(-c4cnco4)nc23)n(C)n1 [Example 45, 8-(1,3-dimethyl-1H-pyrazol-5-yl)-N-((5-fluoro-2,3-dihydrobenzofuran-4-yl)methyl)-2-(oxazol-5-yl)imidazo[1,2-c]pyrimidin-5-amine] |
| 250 to 500 nM | < 250 nM | 500 to 2000 nM | Cc1cc(-c2cnc(NCc3c(F)ccc4c3CCO4)n3cc(CNC4CCC4)nc23)n(C)n1 [Example 30, 2-((cyclobutylamino)methyl)-8-(1,3-dimethyl-1H-pyrazol-5-yl)-N-((5-fluoro-2,3-dihydrobenzofuran-4-yl)methyl)imidazo[1,2-c]pyrimidin-5-amine] |
| 500 to 5000 nM | 500 to 5000 nM | 500 to 2000 nM | Cc1c(F)cccc1-c1cnc(NCc2c(F)ccc3c2CCO3)n2cc(CN)nc12 [Example 17, 2-(aminomethyl)-N-((5-fluoro-2,3-dihydrobenzofuran-4-yl)methyl)-8-(3-fluoro-2-methylphenyl)imidazo[1,2-c]pyrimidin-5-amine] |
| 250 to 500 nM | 250 to 500 nM | 500 to 2000 nM | Cc1cc(-c2cnc(NCc3c(F)ccc4c3CCO4)n3cc(CNC4CC4)nc23)n(C)n1 [Example 33, 2-((cyclopropylamino)methyl)-8-(1,3-dimethyl-1H-pyrazol-5-yl)-N-((5-fluoro-2,3-dihydrobenzofuran-4-yl)methyl)imidazo[1,2-c]pyrimidin-5-amine] |
| 500 to 5000 nM | 250 to 500 nM | 500 to 2000 nM | COCc1cn2c(NCc3c(F)ccc4c3CCO4)ncc(-c3cc(C)nn3C)c2n1 [Example 9, 8-(1,3-dimethyl-1H-pyrazol-5-yl)-N-((5-fluoro-2,3-dihydrobenzofuran-4-yl)methyl)-2-(methoxymethyl)imidazo[1,2-c]pyrimidin-5-amine] |
| < 250 nM | < 250 nM | < 250 nM | Cc1cc(-c2cnc(NCc3c(F)ccc4c3CCO4)n3cc(C(C)N)nc23)ccn1 (stereo not drawn) [Example 38, 2-(1-aminoethyl)-N-((5-fluoro-2,3-dihydrobenzofuran-4-yl)methyl)-8-(2-methylpyridin-4-yl)imidazo[1,2-c]pyrimidin-5-amine] |
| < 250 nM | 500 to 5000 nM | < 250 nM | Cc1cc(-c2cnc(NCc3c(F)ccc4c3CCO4)n3cc(C(C)O)nc23)n(C)n1 (stereo not drawn) [Example 7, 1-(8-(1,3-dimethyl-1H-pyrazol-5-yl)-5-(((5-fluoro-2,3-dihydrobenzofuran-4-yl)methyl)amino)imidazo[1,2-c]pyrimidin-2-yl)ethan-1-ol] |
